Reference: US9169254B2, “Spiroimidazolone derivative” (Chugai Seiyaku Kabushiki Kaisha, priority 2009, dated 2015)

Biological target: T1, human PTH1 receptor (Homo sapiens, UniProt Q03431)
T1 sequence (Q03431 27-593): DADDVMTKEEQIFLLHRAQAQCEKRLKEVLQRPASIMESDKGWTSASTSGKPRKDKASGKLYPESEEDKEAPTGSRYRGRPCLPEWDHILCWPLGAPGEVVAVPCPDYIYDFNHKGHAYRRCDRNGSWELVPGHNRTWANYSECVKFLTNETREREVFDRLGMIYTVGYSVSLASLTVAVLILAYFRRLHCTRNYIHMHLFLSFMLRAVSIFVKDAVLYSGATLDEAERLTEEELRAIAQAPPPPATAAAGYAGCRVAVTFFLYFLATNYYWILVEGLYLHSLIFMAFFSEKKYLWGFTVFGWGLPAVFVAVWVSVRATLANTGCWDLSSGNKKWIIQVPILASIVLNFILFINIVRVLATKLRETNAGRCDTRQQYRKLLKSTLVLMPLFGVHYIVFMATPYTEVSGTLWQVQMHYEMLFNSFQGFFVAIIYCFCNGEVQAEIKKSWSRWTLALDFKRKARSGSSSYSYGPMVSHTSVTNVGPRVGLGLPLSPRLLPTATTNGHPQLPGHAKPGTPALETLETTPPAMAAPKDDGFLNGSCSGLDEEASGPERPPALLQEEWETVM
Test: In vitro cAMP signal activity in HKRK-B7 cells (LLC-PK1 cells overexpressing the human PTH1 receptor)
Format: cell-based
Conditions: HKRK-B7 cells; compound at 1×10^−3 M; cAMP produced as percentage of that produced by hPTH(1-34) at 100 nM

Structure (SMILES)	cAMP production activity (%)
CC[C@H]1CC[C@H](C2=NC3(CCN(S(=O)(=O)CCc4ccc(N5CC(=O)NC5=O)cc4C)CC3)C(=O)N2)CC1 [Compound 878, 1-(4-{2-[2-(4-ethyl-cyclohexyl)-4-oxo-1,3,8-triaza-spiro[4.5]dec-1-ene-8-sulfonyl]-ethyl}-3-methyl-phenyl)-imidazolidine-2,4-dione]	25
Cc1cc(C(=O)N(C)C)ccc1CCS(=O)(=O)N1CCC2(CC1)N=C(Nc1cccc(C(F)(F)F)c1)NC2=O [Compound 1395, 3,N,N-Trimethyl-4-{2-[4-oxo-2-(3-trifluoromethyl-phenylamino)-1,3,8-triaza-spiro[4.5]dec-1-ene-8-sulfonyl]-ethyl}-benzamide]	68
CC(=O)Nc1ccc(CCS(=O)(=O)N2CCC3(CC2)N=C(c2ccc(C#N)cc2)NC3=O)c(C)c1 [Compound 906, N-(4-{2-[2-(4-cyano-phenyl)-4-oxo-1,3,8-triaza-spiro[4.5]dec-1-ene-8-sulfonyl]-ethyl}-3-methyl-phenyl)-acetamide]	78
O=C1NC(C2CCCCC2)=NC12CCN(S(=O)(=O)/C=C/c1ccccc1C(F)(F)F)CC2 [Compound 179, 2-cyclohexyl-8-[(E)-2-(2-trifluoromethyl-phenyl)-ethenesulfonyl]-1,3,8-triaza-spiro[4.5]dec-1-en-4-one]	49
CC(=O)Nc1ccc(CCS(=O)(=O)N2CCC3(CC2)N=C(C2CCC(COCC(F)(F)F)CC2)NC3=O)c(C)c1 (centres unmarked) [Compound 919, N-[3-methyl-4-(2-{4-oxo-2-[4-(2,2,2-trifluoro-ethoxymethyl)-cyclohexyl]-1,3,8-triaza-spiro[4.5]dec-1-ene-8-sulfonyl}-ethyl)-phenyl]-acetamide]	68
Cc1cc(N2CCOC2=O)ccc1/C=C/S(=O)(=O)N1CCC2(CC1)N=C(C1CCC(C)CC1)NC2=O (centres unmarked) [Compound 513, 2-(4-methyl-cyclohexyl)-8-{(E)-2-[2-methyl-4-(2-oxo-oxazolidin-3-yl)-phenyl]-ethenesulfonyl}-1,3,8-triaza-spiro[4.5]dec-1-en-4-one]	33
Cc1cc(N(CCO)S(C)(=O)=O)ccc1/C=C/S(=O)(=O)N1CCC2(CC1)N=C(c1cccc(OC(F)(F)F)c1)NC2=O [Compound 719, N-(2-Hydroxy-ethyl)-N-(3-methyl-4-{(E)-2-[4-oxo-2-(3-trifluoromethoxy-phenyl)-1,3,8-triaza-spiro[4.5]dec-1-ene-8-sulfonyl]-vinyl}-phenyl)-methanesulfonamide]	77
Cc1cc(N(C)C(N)=O)cc(C)c1CCS(=O)(=O)N1CCC2(CC1)N=C(C1CCC(CC(F)(F)F)CC1)NC2=O (centres unmarked) [Compound 936, 1-[3,5-Dimethyl-4-(2-{4-oxo-2-[4-(2,2,2-trifluoro-ethyl)-cyclohexyl]-1,3,8-triaza-spiro[4.5]dec-1-ene-8-sulfonyl}-ethyl)-phenyl]-1-methyl-urea]	98
Cc1cc(OCCCN(C)C)ccc1CCS(=O)(=O)N1CCC2(CC1)N=C(c1cccc(OC(F)(F)F)c1)NC2=O [Compound 295, 8-{2-[4-(3-dimethylamino-propoxy)-2-methyl-phenyl]-ethanesulfonyl}-2-(3-trifluoromethoxy-phenyl)-1,3,8-triaza-spiro[4.5]dec-1-en-4-one]	95
Cc1cc(C(=O)N(C)C)ccc1CCS(=O)(=O)N1CCC2(CC1)N=C(COc1ccc(Cl)cc1)NC2=O [Compound 124, 4-{2-[2-(4-chloro-phenoxymethyl)-4-oxo-1,3,8-triaza-spiro[4.5]dec-1-ene-8-sulfonyl]-ethyl}-3,N,N-trimethyl-benzamide]	64
CNCc1cc(C)c(/C=C/S(=O)(=O)N2CCC3(CC2)N=C(C2CCC(CCC(F)(F)F)CC2)NC3=O)c(C)c1 (centres unmarked) [Compound 1292, 8-[(E)-2-(2,6-dimethyl-4-methylaminomethyl-phenyl)-ethenesulfonyl]-2-[4-(3,3,3-trifluoro-propyl)-cyclohexyl]-1,3,8-triaza-spiro[4.5]dec-1-en-4-one]	14
CN(C)C(=O)NCc1ccc(/C=C/S(=O)(=O)N2CCC3(CC2)N=C(C2CCCCC2)NC3=O)cc1 [Compound 565, 3-{4-[(E)-2-(2-cyclohexyl-4-oxo-1,3,8-triaza-spiro[4.5]dec-1-ene-8-sulfonyl)-vinyl]-benzyl}-1,1-dimethyl-urea]	45
Cc1cc(N2C(=O)NC(C)(C)C2=O)cc(C)c1CCS(=O)(=O)N1CCC2(CC1)N=C(C1CCC(C)CC1)NC2=O (centres unmarked) [Compound 869, 3-(3,5-dimethyl-4-{2-[2-(4-methyl-cyclohexyl)-4-oxo-1,3,8-triaza-spiro[4.5]dec-1-ene-8-sulfonyl]-ethyl}-phenyl)-5,5-dimethyl-imidazolidine-2,4-dione]	65
Cc1cc(N2CCOCC2=O)ccc1/C=C/S(=O)(=O)N1CCC2(CC1)N=C(c1cccc(OC(F)(F)F)c1)NC2=O [Compound 617, 8-{(E)-2-[2-methyl-4-(3-oxo-morpholin-4-yl)-phenyl]-ethenesulfonyl}-2-(3-trifluoromethoxy-phenyl)-1,3,8-triaza-spiro[4.5]dec-1-en-4-one]	96
O=C1NC(c2cccc(C(F)(F)F)c2)=NC12CCN(S(=O)(=O)CCc1ccc(NCCO)cc1C(F)(F)F)CC2 [Compound 286, 8-{2-[4-(2-hydroxy-ethylamino)-2-trifluoromethyl-phenyl]-ethanesulfonyl}-2-(3-trifluoromethyl-phenyl)-1,3,8-triaza-spiro[4.5]dec-1-en-4-one]	54
Cc1cc(C(=O)N2CCC(C)(O)CC2)cc(C)c1/C=C/[S@TB4](=O)(=O)N1CCC2(CC1)N=C(c1cccc(OCCCC(F)(F)C(F)(F)F)c1)NC2=O [Compound 1096, 8-{(E)-2-[4-(4-hydroxy-4-methyl-piperidine-1-carbonyl)-2,6-dimethyl-phenyl]-ethenesulfonyl}-2-[3-(4,4,5,5,5-pentafluoro-pentyloxy)-phenyl]-1,3,8-triaza-spiro[4.5]dec-1-en-4-one]	93
O=C(c1c[nH]c2cccc(CCS(=O)(=O)N3CCC4(CC3)N=C(C3CCCCC3)NC4=O)c12)C(F)(F)F [Compound 649, 2-cyclohexyl-8-{2-[3-(2,2,2-trifluoro-acetyl)-1H-indol-4-yl]-ethanesulfonyl}-1,3,8-triaza-spiro[4.5]dec-1-en-4-one]	40
Cc1cc(N2C(=O)CC[C@@H]2CO)ccc1CCS(=O)(=O)N1CCC2(CC1)N=C(c1ccc(F)c(C(F)(F)F)c1)NC2=O [Compound 857, 2-(4-fluoro-3-trifluoromethyl-phenyl)-8-{2-[4-((R)-2-hydroxymethyl-5-oxo-pyrrolidin-1-yl)-2-methyl-phenyl]-ethanesulfonyl}-1,3,8-triaza-spiro[4.5]dec-1-en-4-one]	89
CONC(=O)Cc1ccc(/C=C/S(=O)(=O)N2CCC3(CC2)N=C(C2CCC(C)CC2)NC3=O)c(C)c1 (centres unmarked) [Compound 988, N-methoxy-2-(3-methyl-4-{(E)-2-[2-(4-methyl-cyclohexyl)-4-oxo-1,3,8-triaza-spiro[4.5]dec-1-ene-8-sulfonyl]-vinyl}-phenyl)-acetamide]	50
Cc1cc(CN2CCCC2=O)cc(C)c1CCS(=O)(=O)N1CCC2(CC1)N=C(C1CCC(CCC(F)(F)F)CC1)NC2=O (centres unmarked) [Compound 776, 8-{2-[2,6-dimethyl-4-(2-oxo-pyrrolidin-1-ylmethyl)-phenyl]-ethanesulfonyl}-2-[4-(3,3,3-trifluoro-propyl)-cyclohexyl]-1,3,8-triaza-spiro[4.5]dec-1-en-4-one]	79
Cc1cc(N2C(=O)NC(C)C2=O)cc(C)c1/C=C/S(=O)(=O)N1CCC2(CC1)N=C(C1CCC(C)CC1)NC2=O (centres unmarked) [Compound 582, 3-(3,5-dimethyl-4-{(E)-2-[2-(4-methyl-cyclohexyl)-4-oxo-1,3,8-triaza-spiro[4.5]dec-1-ene-8-sulfonyl]-vinyl}-phenyl)-5-methyl-imidazolidine-2,4-dione]	104
CCCCCC#CCCC1=NC2(CCN([S@TB17](=O)(=O)CCc3c(C)cc(N(C)C(N)=O)cc3C)CC2)C(=O)N1 [Compound 1082, 1-{3,5-dimethyl-4-[2-(2-non-3-ynyl-4-oxo-1,3,8-triaza-spiro[4.5]dec-1-ene-8-sulfonyl)-ethyl]-phenyl}-1-methyl-urea]	22
Cc1cc(N(C)C(N)=O)ccc1/C=C/S(=O)(=O)N1CCC2(CC1)N=C(c1cccc(OC(F)(F)F)c1)NC2=O [Compound 458, 1-methyl-1-(3-methyl-4-{(E)-2-[4-oxo-2-(3-trifluoromethoxy-phenyl)-1,3,8-triaza-spiro[4.5]dec-1-ene-8-sulfonyl]-vinyl}-phenyl)-urea]	77
